The structures appear in SMILES notation.

The values that follow come from PMC3121873, “Insertion of an Esterase Gene into a Specific Locust Pathogen (Metarhizium acridum) Enables It to Infect Caterpillars” (PLoS Pathogens, 2011).

The test addresses T1, MEST1 (Metarhizium robertsii, UniProt E9ETD4).
T1 construct: gene MAA_03283; full-length cDNA (395 aa, 42244 Da, no signal peptide) in pET28a, His6-tagged, 47 kDa band; E. coli Rosetta (DE3) crude extract, not purified
Kind of test: spectrophotometric p-nitrophenol release. The class given is biochemical. Particulars: 50 mM potassium phosphate pH 8, 37 °C; crude E. coli extract versus empty-vector extract.

T1 sequence (E9ETD4 entry or part of it): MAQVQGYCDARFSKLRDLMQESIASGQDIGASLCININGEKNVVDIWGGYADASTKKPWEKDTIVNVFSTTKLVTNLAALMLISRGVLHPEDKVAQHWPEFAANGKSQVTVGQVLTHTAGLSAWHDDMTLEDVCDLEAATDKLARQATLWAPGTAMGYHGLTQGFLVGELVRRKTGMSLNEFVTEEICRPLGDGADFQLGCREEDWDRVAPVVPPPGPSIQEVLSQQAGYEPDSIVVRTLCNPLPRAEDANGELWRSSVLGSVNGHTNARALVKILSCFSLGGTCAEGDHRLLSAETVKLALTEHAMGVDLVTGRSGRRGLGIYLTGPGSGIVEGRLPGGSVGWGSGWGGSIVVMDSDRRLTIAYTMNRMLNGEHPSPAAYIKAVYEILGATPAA

Consider `CCCC(=O)Oc1ccc([N+](=O)[O-])cc1` [p-NP butyrate], for which the spectrophotometric p-nitrophenol release entry is “highest activity against p-NP propionate (C3), p-NP butyrate (C4) and p-NP caproate (C6)”. Turning to `CCC(=O)Oc1ccc([N+](=O)[O-])cc1` [p-NP propionate], the spectrophotometric p-nitrophenol release entry was “highest activity against p-NP propionate (C3), p-NP butyrate (C4) and p-NP caproate (C6)”.
